This note sets out measurements from patent US20230165970A1, “COMPOSITIONS AND METHODS FOR THE TREATMENT OF BACTERIAL INFECTIONS” (priority 2017, published 2023).

In brackets after ≈: the same amount, converted by molar mass. *1 amine or outer side, *2 acyl side, *3 side chain or, on linkers, in order; H or OH if unused. Where a SMILES comes first, the peptide text is derived from it. Bridges are numbered along the chain shown (N, C = ends). Roman numbers before positions name the chains, in order. [ ]: non-standard residue; d: D form. The star is where a group is joined. X5 = C#CCOCCOCCOCCOCCN1C[C@@H](C(=O)[*:1])[C@H](C(=O)[*:2])C1; X2 = O=C([C@@H](N[*:1])[C@H](O)CCC(F)(F)F)[*:2]; Propargyl(OCH2CH2)4CO = C#CCOCCOCCOCCOCCC(=O)*; X3 = CCCCC[C@@H](O)[C@H](N[*:1])C(=O)[*:2]; azaDab = NCCN(N[*:1])C(=O)[*:2]; Aoc(2) = CCCCCC[C@H](N)C(=O)O; hLeu = CC(C)CC[C@H](N)C(=O)O; Nle = CCCC[C@H](N)C(=O)O; Dab = NCC[C@H](N)C(=O)O; azaGly = NNC(=O)O

What is called MIC is the lowest concentration that inhibits growth of the organism. A high value points to weaker potency.

Experiment [1] relates to A. baumannii AB5075. Kind of experiment: Murine pneumonia model vs. A. baumannii AB5075 (survival). The format is in vivo, C57BI/6J mice. The conditions noted are these: 1×10^8 CFU; for protection against lethal challenge (survival monitored 5 days): 5 mg/kg IV twice at t=+1 h and +4 h, n=5 (FIG. 118). The protocol:
The murine pneumonia model was adapted from Lin et al., 2015 (PMID: 26288841). A. baumannii AB5075 was grown to log-phase in LB at 37° C., 200 rpm shaking. Bacteria were washed once with PBS via centrifugation at 4,000 rpm. Bacteria were adjusted to the desired concentration in PBS.
Prior to infection, 8-week-old female C57BI/6J mice (Jackson Labs) were anesthetized with 100 mg/kg ketamine and 10 mg/kg xylazine. Using an otoscope, mice were infected non-invasively directly into the trachea.
Mice were infected with 5×10^7 CFU in 30 μL of PBS. Mice were treated intraperitoneally with different doses of conjugate 23 or hIgG1 (50 mpk) at t=−12 h pre-infection and t=+1 h post-infection or with colistin (10 mpk) or PBS at t=+1 h, 5 h, 24 h, 36 h, 48 h and 60 h post-infection.
Survival of mice (n=5 per group) was monitored for 5 days. […] Colistin was used as positive control resulting in 80% protection.
The murine pneumonia model was adapted from Lin et al., 2015 (PMID: 26288841). A. baumannii AB5075 was grown to log-phase in LB at 37° C., 200 rpm shaking. Bacteria were washed once with PBS via centrifugation at 4,000 rpm. Bacteria were adjusted to the desired concentration in PBS. Prior to infection, 8-week-old female C57BI/6J mice (Jackson Labs) were anesthetized with 100 mg/kg ketamine and 10 mg/kg xylazine. Using an otoscope, mice were infected non-invasively directly into the trachea.
Mice were infected with 5×10^7 CFU in 30 μL of PBS. Mice were treated intraperitoneally with conjugate 34 or hIgG1 (50 mpk) at t=−12 h pre-infection.
Survival of mice (n=4 per group) was monitored for 5 days. A single dose of ADC conjugate 34 was protective (75% survival) against a lethal challenge with A. baumannii AB5075.
The murine pneumonia model was adapted from Lin et al., 2015 (PMID: 26288841). A. baumannii AB5075 was grown to log-phase in LB at 37° C., 200 rpm shaking. Bacteria were washed once with PBS via centrifugation at 4,000 rpm. Bacteria were adjusted to desired concentration in PBS. […]
The survival (n=5 per group) was monitored twice daily for 5 days. […]

Experiment [2] concerns Ab 19606 (COLhet^R). The format is cell-based, Acinetobacter baumannii. Particulars: media CA-MHB.
Experiment [3] has as its system E. coli 25922. The conditions noted are these: (A) Bacteremia (E. coli); 5 mg/kg IV, single, +1 hr; survival after three days; N=3. The protocol:
In vivo screening of selected compounds was accomplished in an E. coli bacteremia model (N=3). Efficacy was assessed in an animal model of infection using CD-1 mice by evaluating bacteremia in immune competent mice challenged with 2× the LD95 of E. coli 25922 (dosed qd, intraperitoneally (IP) at T+1 hour, survival endpoint).
Colistin (COL) and Int-17 were dosed at 0.3 mg/kg and Int-41 was dosed at 3.0 mg/kg. Percent survival was determined 72 hours after bacterial challenge. Compounds with MICs against E. coli 25922 of less than 4 μg/ml were evaluated in the bacteremia model.
Int-115 and Int-118 were evaluated for potency in a lethal model of bacteremia. […] Test articles were dissolved in 1× PBS and injected IV at a dose volume of 10 ml/kg one hour following bacterial challenge. Animals were monitored twice daily and mortality scored over three days.
CD-1 mice were used for bacteremia, C57BL/6J mice for endotoxemia. The endpoint was survival after three days for both models.

As to `C#CCOCCOCCOCCOCCC(=O)N[C@@H](CCC(C)C)C(=O)N[C@@H](CCN)C(=O)N[C@H](C(=O)NNC(=O)N[C@H]1CCNC(=O)[C@H]([C@@H](C)O)NC(=O)[C@H](CCN)NC(=O)[C@H](CCN)NC(=O)[C@H](CC(C)C)NC(=O)[C@@H](Cc2ccccc2)NC(=O)[C@H](CCN)NC1=O)[C@H](O)CCCCC` [Int-116] ({Propargyl(OCH2CH2)4CO}-[hLeu][Dab][X3][azaGly][Dab][Dab][dF]L[Dab][Dab]T; lactam 5-C), the “protection against lethal challenge (survival monitored 5 days)” value in experiment [1] is recorded as “fully protective”. The minimal inhibitory concentration (MIC) in experiment [2] is 1 µg/mL (≈ 0.691 µM).

For `C#CCOCCOCCOCCOCCC(=O)N[C@@H](CCCCCC)C(=O)N[C@@H](CCN)C(=O)N[C@H](C(=O)N[C@@H](CCN)C(=O)N[C@H]1CCNC(=O)[C@H]([C@@H](C)O)NC(=O)[C@H](CCN)NC(=O)[C@H](CCN)NC(=O)[C@H](CC(C)C)NC(=O)[C@@H](Cc2ccccc2)NC(=O)[C@H](CCN)NC1=O)[C@H](O)CCC(F)(F)F` [Int-118] ({Propargyl(OCH2CH2)4CO}-[Aoc(2)][Dab][X2][Dab][Dab][Dab][dF]L[Dab][Dab]T; lactam 5-C), the “protection against lethal challenge (survival monitored 5 days)” value in experiment [1] amounted to 40%. The “% survival” value in experiment [3] worked out at 66%.

`C#CCOCCOCCOCCOCCN1C[C@@H](C(=O)N[C@@H](CCCC)C(=O)N[C@@H](CCN)C(=O)N[C@H](C(=O)NNC(=O)N[C@H]2CCNC(=O)[C@H]([C@@H](C)O)NC(=O)[C@H](CCN)NC(=O)[C@H](CCN)NC(=O)[C@H](CC(C)C)NC(=O)[C@@H](Cc3ccccc3)NC(=O)[C@H](CCN)NC2=O)[C@@H](C)O)[C@H](C(=O)N[C@@H](CCCC)C(=O)N[C@@H](CCN)C(=O)N[C@H](C(=O)NNC(=O)N[C@H]2CCNC(=O)[C@H]([C@@H](C)O)NC(=O)[C@H](CCN)NC(=O)[C@H](CCN)NC(=O)[C@H](CC(C)C)NC(=O)[C@@H](Cc3ccccc3)NC(=O)[C@H](CCN)NC2=O)[C@@H](C)O)C1` [Int-120] (I: [Nle][Dab]T[azaGly][Dab][Dab][dF]L[Dab][Dab]T / II: [Nle][Dab]T[azaGly][Dab][Dab][dF]L[Dab][Dab]T; lactam I:5-I:C, II:5-II:C; linker I:N-II:N via X5) had an MIC in experiment [2] of 2 µg/mL (≈ 0.767 µM).

On to `C#CCOCCOCCOCCOCCC(=O)N[C@@H](CCC(C)C)C(=O)N[C@@H](CCN)C(=O)N[C@H](C(=O)NN(CCN)C(=O)N[C@H]1CCNC(=O)[C@H]([C@@H](C)O)NC(=O)[C@H](CCN)NC(=O)[C@H](CCN)NC(=O)[C@H](CC(C)C)NC(=O)[C@@H](Cc2ccccc2)NC(=O)[C@H](CCN)NC1=O)[C@@H](C)O` [Int-127] ({Propargyl(OCH2CH2)4CO}-[hLeu][Dab]T[azaDab][Dab][Dab][dF]L[Dab][Dab]T; lactam 5-C), for which the MIC in experiment [2] amounted to 2 µg/mL (≈ 1.39 µM).

Take `C#CCOCCOCCOCCOCCC(=O)N[C@@H](CCCCCC)C(=O)N[C@@H](CCN)C(=O)N[C@H](C(=O)NN(CCN)C(=O)N[C@H]1CCNC(=O)[C@H]([C@@H](C)O)NC(=O)[C@H](CCN)NC(=O)[C@H](CCN)NC(=O)[C@H](CC(C)C)NC(=O)[C@@H](Cc2ccccc2)NC(=O)[C@H](CCN)NC1=O)[C@@H](C)O` [Int-129] ({Propargyl(OCH2CH2)4CO}-[Aoc(2)][Dab]T[azaDab][Dab][Dab][dF]L[Dab][Dab]T; lactam 5-C): in experiment [1] (10 mg/kg IV twice at t=+1 h and +4 h, n=5 (FIG. 119)), the “survival (monitored 5 days)” value was 60%.
